Data as given in patent US7534558B2, “In vitro diagnostic test for enterovirus infections” (Universite de Lille 2 Droit Et Sante, priority 2003, dated 2009).

Assays:
[1] = test system: anti-VP4 antibodies in plasmas or serums; experiment: ELISA of plasmas/serums on wells coated with VP4 protein or VP4 peptides; assay type: binding, human; conditions: diluted 1/50, antigen coated at 5 μg/ml, 490 nm
Procedure: 40 plasmas from non diabetic patients and 40 plasmas or serums from diabetic patients were assayed.
The VP4 protein or the 5 VP4 peptides, diluted at 5 μg/ml in PBS buffer pH=7.4, are coated in the wells of a microplate of 96 wells (FluoroMunc, MaxiSorp surface, NUNC, Danemark) at the rate of 100 μl/well. The plates are incubated for 1 hour at 37° C. under humid atmosphere, then left for 24 h at room temperature. After 3 washings with PBS buffer, the wells are saturated with 300 μl of saturation buffer for 1 hour at 37° C. under humid atmosphere, before washing 3 times with the washing buffer. Then 250 μl of post-coating buffer are added to each well and the plates are incubated for 24 h at room temperature, then stored at 4° C. until use.
The wells coated with the VP4 protein or the different peptides VP4 are washed 3 times with washing buffer in order to remove the post-coating solution. Then 100 μl of the plasmas or serums diluted to 1/50th in dilution buffer are added to different wells and the plates are incubated for 1 hour at 37° C. under humid atmosphere. Simultaneously, a negative control well containing 100 μl of dilution buffer is carried out. Then the wells are washed 3 times with the washing solution and 100 μl of secondary antibody solution are added to each well. After incubation for 1 h at 37° C. under humid atmosphere, the wells are washed 5 times with the washing solution and 100 μl of substrate solution are added to each well. The plates are incubated for 30 minutes at room temperature and in the dark. The coloured reaction is stopped by addition of 25 μl of H2SO4 2M (1M) per well and the plates are read in a plate reader at a wavelength of 490 nm.
ODs obtained for each serum with the VP4 protein and the different peptides VP4 were divided by the OD obtained with the negative control. The following Tables show the mean +/− standard deviation of the rates of OD obtained with the two series of assayed serums (Patient=diabetic patients, Control=not diabetic). (see FIGS. 8 à 10)

[2] = test system: IFNα production by PBMCs; experiment: IFNα production by PBMCs with VP4 protein alone (control wells); assay type: cell-based, human; conditions: no virus, no plasma
Procedure: PBMCs separated from whole heparinated blood are distributed into microwells (plate of 96 wells), at the rate of 5 to 8.10^5 cell in 100 μl of supplemented RPMI medium by well. The infection of PBMC is made with a final volume of 100 μl of preparation in each well. After incubation for 48 h at 37° C. under a 5% CO2 atmosphere and 90% humidity, the supernatant is harvested and used immediately for IFNα dosage, or clarified by centrifugation for 10 minutes at 180×g and stored at −80° C. until dosage of the produced IFNα.
(§1) The concentration of the produced IFNα is determined with a sensitive and specific technique, the DELFIA method (Dissociation Enhanced Lanthanide FluoroImmmoAssay) (Rönnblom and al 1997).
(§2) The dosage of IFNα is performed following the DELFIA principle (Dissociation Enhanced Lanthanide FluoroImmunoAssay), based on a immunofluorescence in retarded phase method using antibodies binding IFNα of which one is labelled with europium. The use of an activation solution will release the europium conjugated with antibodies and emit a fluorescence proportional to the amount of produced IFNα and measured with a fluorometer (fluorometer LKB Wallac 1230 ARCOSO®, Turku, Finlande).
Monoclonal anti-IFNα antibodies LT 273 (5.4 mg/ml) and LT 293 (4.8 mg/ml) supplied by Dr Gunar Alm (Uppsala, Sweden) are coated to the bottom of the wells after an incubation for 12 hours at room temperature. […]

[3] = test system: CVB3/plasma induced IFNα production by PBMCs; experiment: CVB3/plasma induced IFNα production by PBMCs (DELFIA); assay type: cell-based, human; conditions: CVB3 infection of PBMCs; healthy donor plasma preincubated 1 h with the VP4 protein before CVB3; 48 h; positive control 323 IU/ml
Procedure: VP4, H antigen or mock proteins were preincubated for 1 h at 37° C. at different concentrations with plasma from 5 healthy subjects diluted at optimal dilution (1/10 or 1/100 ). CVB3 or CVB4 were then added for 1 hour before incubating with PBMCs. […] On the contrary, the mock proteins isolated from non-infected Hep-2 cells have non effect on the IFNα production.
PBMCs separated from whole heparinated blood are distributed into microwells (plate of 96 wells), at the rate of 5 to 8.10^5 cell in 100 μl of supplemented RPMI medium by well. The infection of PBMC is made with a final volume of 100 μl of preparation in each well. […]
as §1
as §2, with “Finlande). […]” for “Finlande).”

recombinant VP4 protein: recombinant VP4 protein of CVB4E2, made in E. coli as MBP-VP4 fusion and cleaved by Factor Xa
Mean value of OD ratio (OD / OD of negative control), ELISA ([1]; Control = 40 serums of non diabetic patients): 0.695
Mean value of OD ratio (OD / OD of negative control), ELISA ([1]; Patient = 40 serums of diabetic patients): 2.119
IFNα production by PBMCs, protein alone [2]: do not lead to the IFNα production
IFNα production [3]: 308 IU/ml
